In article PMC6735331, “Competitive α-glucosidase inhibitors, dihydrobenzoxanthones, from the barks of Artocarpus elasticus” (Journal of Enzyme Inhibition and Medicinal Chemistry, 2019):
“Also recorded” adds a separate entry of the source. Like-named read-outs stand apart in the source and are kept apart here.

Experiments:
[1] = biological target: T1, α-glucosidase (EC3.2.1.20) (Saccharomyces cerevisiae, UniProt P53341); assay: α-Glucosidase enzyme kinetics (Lineweaver–Burk, Dixon plots, secondary plots, Yang's method); type: biochemical; set-up: Vmax: unit not given here; settings: for Kik/Kiv: Yang's method; for Kinetic mode: double reciprocal (Lineweaver–Burk) plots; for KIS: inhibitor binding with enzyme-substrate complex, secondary plots of intercepts
T1 construct: purchased Sigma Aldrich
Experimental: Similarly, the enzyme kinetic modes were clarified using a different p-nitrophenyl-α-D-glucopyranoside substrate (0, 0.5, 1, and 2 mM) and inhibitors concentrations. Analysis of the data used to determine the individual parameters of curves was prepared in the nonlinear regression program Sigma Plot (SPCC Inc., Chicago, IL, USA). The kinetic parameters, Michaelis–Menten (Km) and maximum velocity (Vmax), were found using Lineweaver–Burk plots. The dissociation constants between inhibitor and enzyme (Ki) were found from Dixon plots. Two inhibition constants for inhibitor binding with either free or enzyme-substrate complex, KI or KIS, were calculated from secondary plots of the slopes of the straight lines or vertical intercept (1/ Vmaxapp ), respectively, verse the concentration of inhibitors by Equations (2)–(4). Kik and Kiv rate constants were calculated according to Equations (5) and (6) proposed by Yang et al.[20]: (2) 1/V=Km/Vmax(1 + [I]/KI)1/S + 1/Vmax (3) Slope =Km/KIVmax[I] +Km/Vmax (4) Intercept = 1/KISVmax[I] +[…] (5) Km=Km0× (1 + [I]/Kik) (6) Vm=Vm0× (1 + [I]/Kiv)

[2] = biological target: T1, α-glucosidase (EC3.2.1.20); assay: biochemical
Experimental: The inhibitory activity of α-glucosidase (EC3.2.1.20) was carried out with a few changes from literature reported method, using p-nitrophenyl-α-D-glucopyranoside at optimal pH of 6.8 (50 mM phosphate buffer)[3]. Inhibitors were dissolved and diluted to a needed concentration in DMSO. […] The absorbance of formed p-nitrophenol immediately measured with a wavelength of 405 nm at 37 °C. […] Calculation of the % of inhibition was as follows: (1) Activity (%)=100[1+([I]/IC50)]

[3] = biological target: T2, α-glucosidase (Saccharomyces cerevisiae, UniProt P53341); assay: Binding affinity measurement by fluorescence quenching (Stern–Volmer); settings: for KSV: Stern–Volmer constant
T2 construct: purchased Sigma Aldrich
Experimental: 180 µL of 50 mM phosphate buffer (pH 6.8) with 10 µL of 0.2 unit/mL α-glucosidase were added into the 96-well black immuno-plates then 10 µL different concentrations (2–32 µM) of inhibitor were added. Fluorescent emission spectra were recorded from 300 to 400 nm, emission slits adjusted to 2.0 nm, and the excitation was 250 nm, using spectrophotometer (SpectraMax M3). There was no significant emission from any ingredient in the assay system under given experimental conditions (i.e. emission from 300 to 400 nm). A level of affinity was expressed with KSV, which was analysed using the Stern–Volmer equation: (12) […]=1+KSV[Qf] where F0 and F are the fluorescence intensities in the absence and presence of a quencher. Qf is a concentration of compounds.

[4] = biological target: T2, α-glucosidase; assay: Progress curves and time-dependent (slow-binding) assay; type: biochemical
Experimental: Time-dependent assays of inhibitors at the different preincubation time (0, 15, 30, 45, 60 and 80 min) were accomplished using 0.05 unit/mL final concentration of α-glucosidase and p-nitrophenyl-α-D-glucopyranoside substrate (1 mM) in 50 mM phosphate buffer (pH 6.8) at 37 °C[21]. The progress curves were monitored every 30 s for 30 min. Furthermore, to clearly understand the time-dependent inhibition mode of α-glucosidase, inhibitors were assayed using different concentrations. Accordingly, the progress curves were calculated using Equations (7)–(11). Analysis of the data was prepared by the nonlinear regression program Sigma Plot (SPCC Inc., Chicago, IL, USA): (7) [P]t/[E]= vst+ vi−vs/kobs(1−e^−kobst) where [P]t is the concentration of product formed and [E] is the total enzyme concentration. (8) v/v0= exp (−kobst) (9) Enz+I⇄k4k3Enz−I (10) kobs=k4(1+[I]/Kiapp) (11) Kiapp=k4/k3

[5] = biological target: T1, α-glucosidase (EC3.2.1.20); assay: α-Glucosidase enzyme kinetics (Lineweaver–Burk, Dixon plots, secondary plots, Yang's method); type: biochemical; settings: enzyme activity vs. enzyme concentration at different inhibitor concentrations
[6] = p-NPG substrate, 50 mM phosphate buffer pH 6.8, 37 °C, read-out: IC50
[7] = fluorescence quenching, read-out: KA (converted)
[8] = slow-binding fit, Equations (10) and (11)
[9] = from Dixon plots, read-out: Ki (inhibition constant)

T1 sequence (P53341 whole entry): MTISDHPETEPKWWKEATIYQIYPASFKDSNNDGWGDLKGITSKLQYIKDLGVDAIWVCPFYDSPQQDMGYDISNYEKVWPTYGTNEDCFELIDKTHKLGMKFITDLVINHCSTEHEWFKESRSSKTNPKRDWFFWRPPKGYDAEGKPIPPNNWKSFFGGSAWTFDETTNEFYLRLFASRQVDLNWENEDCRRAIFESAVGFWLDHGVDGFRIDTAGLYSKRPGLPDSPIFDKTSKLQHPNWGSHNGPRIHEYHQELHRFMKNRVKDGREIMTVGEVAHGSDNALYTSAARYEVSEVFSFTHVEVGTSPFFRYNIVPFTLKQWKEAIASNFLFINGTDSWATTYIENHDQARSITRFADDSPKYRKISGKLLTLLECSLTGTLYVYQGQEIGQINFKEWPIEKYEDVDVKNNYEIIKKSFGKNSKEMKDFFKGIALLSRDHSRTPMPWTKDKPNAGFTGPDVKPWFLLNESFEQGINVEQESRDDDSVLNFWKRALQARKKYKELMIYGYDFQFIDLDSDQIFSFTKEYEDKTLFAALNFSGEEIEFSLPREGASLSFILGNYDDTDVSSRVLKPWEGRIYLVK
T2 sequence (P53341 whole entry): as above

Compound: CC(C)=CCCC1(C)C=Cc2c(cc(O)c3c(=O)c(CC=C(C)C)c(-c4cc(O)c(O)cc4O)oc23)O1 (single isomer, unassigned; (-)) [Compound 5, (-)-2-(2,4,5-trihydroxyphenyl)-3-(3-methyl-2-buten-1-yl)-5-hydroxy-8-methyl-8-(4-methyl-3-penten-1-yl)-4H,8H-benzo[1,2-b:3,4-b']dipyran-4-one]
- Vmax ([1]; [I] 7.5 μM): 4.74
- Kik/Kiv ([1]; [I] 7.5 μM): 3.79
- Vmax ([1]; [I] 15.0 μM): 3.67
- Kik/Kiv ([1]; [I] 15.0 μM): 3.18
- Vmax ([1]; [I] 30.0 μM): 2.79
- Kik/Kiv ([1]; [I] 30.0 μM): 3.25
- Kinetic mode [1]: Mixed type I
- KIS [1]: 20.4 µM
- Ki ([1]; inhibitor binding with free enzyme, secondary plots of slopes, read-out: KI): 5.4 µM
- IC50 [2, 6]: 8.8 ± 0.3 µM
- KSV ([3]; pH 6.8, 37 °C): 1.63 ×10^5 L·mol^–1
- Kd [3, 7]: 1.23 µM

Compound: C=C(C)C1Cc2c(oc3cc(OC)cc(O)c3c2=O)-c2c(O)cc(O)c(O)c21 (centres unmarked) [Compound 1, 1,3,4,8-tetrahydroxy-10-methoxy-5-(prop-1-en-2-yl)-5,6-dihydro-benzo[c]xanthen-7-one]
- Time-dependent inhibition mode ([4]; preincubation time dependence, kobs vs [I]): competitive and reversible simple slow-binding; also recorded: slow-binding inhibitor
- k3 [4, 8]: 728 M⁻¹ s⁻¹
- k4 [4, 8]: 0.0166 min⁻¹
- Ki ([4]; slow-binding fit, Kiapp = k4/k3): 0.38 µM
- Reversibility of inhibition [5]: reversible inhibitor
- Vmax ([1]; [I] 4.0 μM): 6.30
- Kik/Kiv ([1]; [I] 4.0 μM): 55.80
- Vmax ([1]; [I] 8.0 μM): 6.50
- Kik/Kiv ([1]; [I] 8.0 μM): 48.88
- Vmax ([1]; [I] 16.0 μM): 7.55
- Kik/Kiv ([1]; [I] 16.0 μM): 29.79
- Kinetic mode [1]: Competitive
- Ki [1, 9]: 2.9 µM
- IC50 [2, 6]: 7.6 ± 0.2 µM
- KSV [3]: 1.84 × 10^5 Lmol^−1
- KSV ([3]; pH 6.8, 37 °C): 1.84 ×10^5 L·mol^–1
- Kd [3, 7]: 1.27 µM

Compound: C=C(C)[C@H]1Cc2c(oc3c4c(cc(O)c3c2=O)OC(C)(C)C=C4)-c2c(O)cc(O)c(O)c21 [Compound 2, artobiloxanthone]
- Vmax ([1]; [I] 7.5 μM): 9.7056
- Kik/Kiv ([1]; [I] 7.5 μM): 76.6587
- Vmax ([1]; [I] 15.0 μM): 9.6712
- Kik/Kiv ([1]; [I] 15.0 μM): 102.4604
- Vmax ([1]; [I] 30.0 μM): 9.8012
- Kik/Kiv ([1]; [I] 30.0 μM): 209.3396
- Kinetic mode [1]: Competitive
- Ki [1, 9]: 5.1 µM
- IC50 [2, 6]: 8.6 ± 0.5 µM
- KSV ([3]; pH 6.8, 37 °C): 1.53 ×10^5 L·mol^–1
- Kd [3, 7]: 1.32 µM

Compound: CC1(C)Oc2c(O)cc(O)c3c2C1Cc1c-3oc2cc(O)cc(O)c2c1=O (centres unmarked) [Compound 3, artoindonesianin P]
- Vmax ([1]; [I] 17.5 μM): 6.6800
- Kik/Kiv ([1]; [I] 17.5 μM): 23.8593
- Vmax ([1]; [I] 35 μM): 6.7889
- Kik/Kiv ([1]; [I] 35 μM): 31.6240
- Vmax ([1]; [I] 70 μM): 6.7204
- Kik/Kiv ([1]; [I] 70 μM): 75.7804
- Kinetic mode [1]: Competitive
- Ki [1, 9]: 12.6 µM
- IC50 [2, 6]: 25.4 ± 0.7 µM
- KSV [3]: 0.51 × 10^5 Lmol^−1
- KSV ([3]; pH 6.8, 37 °C): 0.51 ×10^5 L·mol^–1
- Kd [3, 7]: 1.75 µM

Compound: CC1(C)C=Cc2c(cc(O)c3c(=O)c4c(oc23)-c2c(O)cc(O)c3c2C(C4)C(C)(C)O3)O1 (centres unmarked) [Compound 4, cycloartobiloxanthone]
- Vmax ([1]; [I] 7.5 μM): 6.3816
- Kik/Kiv ([1]; [I] 7.5 μM): 16.6987
- Vmax ([1]; [I] 15.0 μM): 7.3692
- Kik/Kiv ([1]; [I] 15.0 μM): 11.4837
- Vmax ([1]; [I] 30.0 μM): 7.4627
- Kik/Kiv ([1]; [I] 30.0 μM): 20.2662
- Kinetic mode [1]: Competitive
- Ki [1, 9]: 5.8 µM
- IC50 [2, 6]: 9.6 ± 0.6 µM
- KSV ([3]; pH 6.8, 37 °C): 1.29 ×10^5 L·mol^–1
- Kd [3, 7]: 1.27 µM

Compound: CC(C)=CCc1c(-c2cc(O)c(O)cc2O)oc2c3c(cc(O)c2c1=O)OC(C)(C)C=C3 [Compound 6, artonin E]
- Ki ([1]; KI, inhibitor binding with free enzyme, secondary plots of slopes): 15.4 µM
- Ki ([1]; Ki (inhibition constant), from Dixon plots): 15.8 µM
- Vmax ([1]; [I] 7.5 μM): 5.0352
- Kik/Kiv ([1]; [I] 7.5 μM): 3.7049
- Vmax ([1]; [I] 15.0 μM): 4.2992
- Kik/Kiv ([1]; [I] 15.0 μM): 2.5098
- Vmax ([1]; [I] 30.0 μM): 3.6219
- Kik/Kiv ([1]; [I] 30.0 μM): 1.8101
- Kinetic mode [1]: Mixed type I
- KIS [1]: 51.7 µM
- IC50 [2]: 16.2 ± 0.8 µM
- Kd [3]: 1.28 µM
- KSV [3]: 0.93 × 10^5 Lmol^−1
- KSV ([3]; pH 6.8, 37 °C): 0.93 ×10^5 L·mol^–1
